# Measurements taken from US11866394B2, “Prodrugs of hydroxamate-based GCPII inhibitors” (The Johns Hopkins University, priority 2016, dated 2024).
# “Also recorded” adds a separate entry of the source. Where two headings read alike, the source gives them in different places.
# Assays:
# [1] = Subcutaneous plasma and sciatic nerve pharmacokinetic studies in mice; format: in vivo; settings: 10 mg/kg equivalent s.q., 10-120 min post dose
# Method: Bioanalysis of parent and intact prodrug in plasma and tissues: Prior to extraction, frozen samples were thawed on ice. For plasma, 50 μL of the sample was transferred into siliconized microcentrifuge tubes. For sciatic nerves, the samples were weighed in a 1.7 mL tubes and homogenized in 5× the volume of methanol. The calibration curves were prepared using naïve plasma and sciatic nerves in a concentration range of 50-10000 pmol/g or pmol/mL. Sample preparation involved a single liquid extraction by addition of 300 μL of methanol with internal standard (losartan 200 nM in methanol), followed by vortexing for 30 s and then centrifugation at 10,000×g for 10 min. Supernatant (about 250 μL) was transferred and evaporated to dryness at 40° C. under a gentle stream of nitrogen. The residue was reconstituted with 50 μL of 30% acetonitrile and analysed by LC/MS/MS.
# Chromatographic analysis was performed using an Accela™ ultra high-performance system consisting of an analytical pump, and an autosampler coupled with TSQ Vantage mass spectrometer (Thermo Fisher Scientific Inc., Waltham, MA). […] The mobile phase used was composed of 0.1% formic acid in acetonitrile and 0.1% formic acid in H2O with gradient elution, starting with 10% (organic) linearly increasing to 99% up to 2.5 min, maintaining at 99% (2.5-3.5 min) and reequlibrating to 10% by 4.5 min. The total run time for each analyte was 4.5 min. The mass transitions (M−H)− used for Compound 50 were 280.077>175.168, 203.156; and for losartan were 420.895>127.040, 179.108.
# [2] = In vitro plasma metabolite identification studies; format: in vitro ADME; settings: 10 μM, 37° C., 60 min incubation
# Method: Plasma stability studies were conducted in mouse plasma as previously described. (Majer, et al., 2016) Compound 1 and prodrugs (12, 23 and 30) (10 μM) were spiked in plasma and incubated in an orbital shaker at 37° C. At zero and 60 min post incubation, 100 μL aliquots of the mixture in triplicate were removed and the reaction quenched by addition of two times the volume of ice cold acetonitrile spiked with the internal standard (losartan 5 μM). The samples were vortexed for 30 s and centrifuged at 12000 g for 10 min. Supernatant (50 μL) was diluted with 50 μL water and transferred to a 250 μL polypropylene vial sealed with a Teflon cap. Prodrug disappearance and metabolite identification were analyzed over time using an Agilent 1260 HPLC coupled to a ESITOF Agilent 6530 with Agilent Jet Stream Technology (Agilent Technologies, Santa Clara, CA). Samples were separated on a Waters 1.7 μm, C18, 100×2.1 column at a flow rate 0.3 mL/min. […] The mass spectrometry instrument was operated in a negative or positive (for JV-2946) ion mode with a voltage of +3.00 kV applied to the capillary. The temperature, the flow rate of the nitrogen drying gas, the pressure of the nitrogen nebulizing gas, the temperature, and the flow rate of the sheath gas were set at 325° C., 10 L/min, 40 psi, 390° C., and 11/min, respectively.
# rhGCPII = rhGCPII (Homo sapiens, UniProt Q04609); assay: GCPII inhibition, radioenzymatic assay with 3H-NAAG; format: biochemical; settings: for IC50: rhGCPII, 3H-NAAG, pH 8.0, read-out: IC50, inhibition potency against GCPII
# Method: Inhibition constants of prodrugs were determined using the radioenzymatic assay with 3HNAAG (radiolabeled at the terminal glutamate) as has been previously described (Novakova, et al., J. Med. Chem, 2016). Briefly, rhGCPII (30 ng/mL) was preincubated in the presence of inhibitors at varying concentrations, in 20 mM Tris, 150 mM NaCl, pH 8.0, for 15 min at 37° C. in the total volume of 80 μL. The reaction was initiated by the addition of 40 μL of the mixture of 0.31 μM NAAG (Sigma) and 15 nM 3H-NAAG (50 Ci/mmol in Tris buffer, PerkinElmer) to the total reaction volume of 120 μL. Following 20 min incubation, the reaction was terminated by addition of 120 μL of potassium phosphate (200 Mm), EDTA (50 Mm) and β-mercaptoethanol (2Mm), pH 7.4. The released glutamate was separated by ion-exchange chromatography and quantified by liquid scintillation counting. GraphPad Prism software (GraphPad Software, San Diego, CA, USA), was used for data fitting and IC50 values were calculated from the inhibition curves where applicable.
# [3] = tested on: rat chronic constriction injury (CCI) model of neuropathic pain; settings: cited from earlier work
# [4] = cited from earlier work; for oral bioavailability: background statement
# [5] = Stability testing under GCPII enzyme assay conditions; format: physicochemical; settings: 30 m in aqueous buffer; pH 8.0
# Method: Compound 1 and its six prodrugs 7, 12, 17, 23, 25, and 30 were tested for their inhibition potency against GCPII. […] Considering structural data on the compound 1/GCPII complex reported previously (Novakova, et al., J. Med. Chem, 2016) the lack of inhibitory potency of the prodrugs is likely due to the inability of the modified hydroxamate function to chelate active-site zinc ions.
# [6] = In vitro metabolic stability in human plasma; format: in vitro ADME; settings: 37° C.
# Method: (§1) For metabolic stability, plasma (mouse, and human) and liver microsomes (mouse and human) were used. For stability, prodrugs (10 μM) were spiked in each matrix and incubated in an orbital shaker at 37° C. At predetermined times (0, 30 and 60 min), 100 μL aliquots of the mixture in triplicate were removed and the reaction quenched by addition of three times the volume of ice cold acetonitrile spiked with the internal standard (losartan 5 μM). The samples were vortexed for 30 s and centrifuged 12000 g for 10 min. 50 μL supernatant diluted with 50 μL water was transferred to a 250 μL polypropylene vial sealed with a Teflon cap. Prodrug disappearance was monitored over time using a liquid chromatography and tandem mass spectrometry (LC/MS/MS) method as described below.
# (§2) For LC/MS/MS, prodrugs were separated with Thermo Scientific Accela UPLC system coupled to Accela open autosampler on an Agilent C18 (100×2.1 mm id) UPLC column. The autosampler was temperature controlled and operating at 10° C. […] The column effluent was monitored using TSQ Vantage triple-quadrupole mass spectrometric detector, equipped with an electrospray probe set in the positive ionization mode. […]
# (§3) For quantification of compound remaining, disappearance of prodrugs was measured from ratio of peak areas of analyte to IS. Percentage remaining was calculated in the following manner: […]
# [7] = In vitro metabolic stability in mouse plasma; format: in vitro ADME; settings: 37° C.
# Method: as §1, §2, §3
# [8] = tested on: rat chronic constriction injury (CCI) model of neuropathic pain; assay: Chronic constrictive injury (CCI) model of neuropathic pain, thermal hyperalgesia; format: in vivo
# Text: All experimental protocols were approved by the Institutional Animal Care and Use Committee at Johns Hopkins University (Baltimore, MD) and adhered to all of the applicable institutional and governmental guidelines for the humane treatment of laboratory animals. Male Sprague-Dawley rats (200-250 g; n=10-15 per group) were subjected to peripheral neuropathy injury by constriction of the sciatic nerve performed according to methods described previously. (Novakova, et al., 2016; Bennett, et al., 1988; Attal, et al., 1990) In brief, the common sciatic nerve was exposed and 4 ligatures (4.0 chromic gut) tied loosely around it with 1 mm spacing. Wound clips were used to close wounds and animals were returned to home cages for recovery. Hyperalgesia testing was initiated 10 days post-surgery. Pain sensitivity was assessed by determining withdrawal latencies in response to a constant thermal stimulus directed to the plantar surface of the hind paw using a Basile Plantar apparatus (Ugo Basile, Vaarese, Italy) according to the method described by Hargreaves et al. (Hargreaves, et al., 1988) Apparatus was calibrated so that normal rats respond to the stimulus within 15 sec of application. Withdrawal latency (i.e., the time taken for the rat to withdraw its paw from the heat source) was measured to the nearest 0.1 sec. The “difference in score” was calculated by subtracting the average latency of the paw on the non-ligated versus ligated side. Each animal was tested during two experimental sessions per week, with three days allowed to elapse between test sessions. Test agents, prodrug 12 (3 mg/kg equivalent of 1), or gabapentin (50 mg/kg and 100 mg/kg po) as a positive control were dosed daily throughout the study via oral gavage and one hour before testing on experimental days. Statistical analysis with students t-test was used to determine differences between control and treatment group.
# rhGCPII, sequence (Q04609 whole entry): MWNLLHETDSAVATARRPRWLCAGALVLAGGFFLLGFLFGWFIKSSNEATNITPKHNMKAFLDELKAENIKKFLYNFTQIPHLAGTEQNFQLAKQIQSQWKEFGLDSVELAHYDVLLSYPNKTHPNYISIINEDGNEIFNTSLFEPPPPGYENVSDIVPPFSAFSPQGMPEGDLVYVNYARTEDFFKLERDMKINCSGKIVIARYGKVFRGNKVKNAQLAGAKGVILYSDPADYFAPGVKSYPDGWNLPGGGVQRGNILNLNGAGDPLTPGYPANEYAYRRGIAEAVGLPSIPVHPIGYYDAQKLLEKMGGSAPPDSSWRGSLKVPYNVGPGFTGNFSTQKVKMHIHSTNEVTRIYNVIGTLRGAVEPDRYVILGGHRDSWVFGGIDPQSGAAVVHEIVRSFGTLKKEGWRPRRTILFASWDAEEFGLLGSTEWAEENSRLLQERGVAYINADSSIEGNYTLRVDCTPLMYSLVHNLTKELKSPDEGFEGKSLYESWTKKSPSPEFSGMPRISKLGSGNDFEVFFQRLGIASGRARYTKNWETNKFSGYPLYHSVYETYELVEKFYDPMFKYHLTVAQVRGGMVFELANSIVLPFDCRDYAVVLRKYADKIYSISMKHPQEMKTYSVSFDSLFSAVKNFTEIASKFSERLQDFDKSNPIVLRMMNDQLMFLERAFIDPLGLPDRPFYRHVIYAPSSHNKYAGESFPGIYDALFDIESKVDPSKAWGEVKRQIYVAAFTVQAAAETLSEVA
smiles,measurement,setting,value
"CC(=O)Oc1ccc(CONC(=O)CCC(Cc2ccc(C(=O)OCOC(=O)OC(C)C)cc2)C(=O)O)cc1 (stereo not drawn) [Compound 30, 5-(((4-Acetoxybenzyl)oxy)amino)-2-(4-((((isopropoxycarbonyl)oxy)methoxy)carbonyl)benzyl)-5-oxopentanoic acid]",plasma (systemic) levels of active compound 50 after subcutaneous dosing,[1],high systemic levels
same,sciatic nerve exposure of active compound 50 after subcutaneous dosing,[1],excellent nerve exposure
same,stability / prodrug disappearance in mouse plasma,[2],completely hydrolyzed
"O=C(CCC(Cc1ccc(C(=O)O)cc1)C(=O)O)NO (stereo not drawn) [Compound 1, 4-Carboxy-α-[3-(hydroxyamino)-3-oxopropyl]-benzenepropanoic acid]",IC50,rhGCPII,44 nM
same,stability / prodrug disappearance in mouse plasma,[2],completely stable
same,analgesic effects in the CCI model,"[3]; 10 mg/kg/day oral dosing, previously shown",analgesic effects
same,first day with significantly reduced thermal hyperalgesia,"[3]; oral 10 mg/kg/day (Novakova, et al., 2016)",8 days
same,distribution to sciatic nerves,"[4]; Novakova, et al., 2016",good distribution to sciatic nerves
same,oral bioavailability,[4],poor oral bioavailability
"Cc1oc(=O)oc1CONC(=O)CCC(Cc1ccc(C(=O)O)cc1)C(=O)O (stereo not drawn) [Compound 17, 4-(2-Carboxy-5-(((5-methyl-2-oxo-1,3-dioxol-4-yl)methoxy)amino)-5-oxopentyl)benzoic acid]",fold less potent versus 1 in inhibiting GCPII activity,rhGCPII; compared to compound 1,12 fold
same,IC50,rhGCPII,540 nM
same,stability under GCPII enzyme assay conditions,[5],partial hydrolysis to 1
"O=C(O)CCC(CP(=O)(O)O)C(=O)O (stereo not drawn) [Compound 2-PMPA, 2-phosphonomethyl pentanedioic acid]",oral bioavailability,[4],negligible oral availability
"CC(=O)Oc1ccc(CONC(=O)CCC(Cc2ccc(C(=O)O)cc2)C(=O)O)cc1 (stereo not drawn) [Compound 12, 4-(5-(((4-Acetoxybenzyl)oxy)amino)-2-carboxy-5-oxopentyl)benzoic acid]",plasma (systemic) levels of active compound 50 after subcutaneous dosing,[1],high systemic levels
same,sciatic nerve exposure of active compound 50 after subcutaneous dosing,[1],excellent nerve exposure
same,metabolic stability in human plasma,[6],rapidly metabolized
same,metabolic stability in mouse plasma,[7],rapidly metabolized
same,stability / prodrug disappearance in mouse plasma,[2],lost the peak corresponding to 12
same,"response latency to thermal stimulus, sham-operated side",[8]; oral 4.6 mg/kg/day (equivalent of 3 mg/kg/day of 1),no significant effect on absolute latency; also recorded: did not affect the response latency
same,"antinociceptive effect on thermal hyperalgesia, ligated side","[8]; oral daily, 3 mg/kg dose equivalent of 1 (50), 4.6 mg/kg/day for 12",analgesic efficacy comparable to dose of 10 mg/kg of 1; also recorded: significantly reduced thermal hyperalgesia; also recorded: analgesic efficacy superior to that of oral daily doses of 10 mg/kg of 1; also recorded: efficacious; also recorded: significantly attenuated CCI-induced hyperalgesic state
same,first day with significantly reduced thermal hyperalgesia,"[8]; oral, 3 mg/kg/day equivalent of 1",4 days
"CCOC(=O)c1ccc(CC(CCC(=O)NOCc2ccc(OC(C)=O)cc2)C(=O)O)cc1 (stereo not drawn) [Compound 23, 5-(((4-Acetoxybenzyl)oxy)amino)-2-(4-(ethoxycarbonyl)benzyl)-5-oxopentanoic acid]",stability / prodrug disappearance in mouse plasma,[2],complete loss of 23
"NCC1(CC(=O)O)CCCCC1 [gabapentin, reference compound]","antinociceptive effect on thermal hyperalgesia, ligated side",[8]; oral 50 mg/kg/day,did not significantly attenuate the hyperalgesic state
same,"antinociceptive effect on thermal hyperalgesia, ligated side","[8]; oral 100 mg/kg/day, 100 mg/kg/day",significantly reversed allodynia; also recorded: significantly attenuated CCI-induced hyperalgesic state
